One assay has as its target T1, Akt1 pS473 (Homo sapiens, UniProt P31749).
T1 construct: expression of Akt1 pS473, Akt2 pS474, Akt3 pS472, and Akt pan 5473,474,472 in A2780 cells; endogenous in cells; host or cells: A2780 human ovarian carcinoma cells
Put plainly: Akt1 phosphorylation in A2780 cells. The class given is cell-based. The following applies: human ovarian carcinoma cells (A2780). An excerpt:
FIG. 10 is a bar graph showing the effect of mJJ64A on the expression of Akt1 pS473, Akt2 pS474, Akt3 pS472, and Akt pan 5473,474,472 in A2780 cells compared to control. The Y axis represents integrated density value.

For a further assay, the system named is FoxP3. Put plainly: Western blot of FoxP3 in Tconv cells during iTreg induction. In kind it is cell-based. As to conditions: TGF-β induced. The source says: FIG. 12 is a western blot showing the expression of FoxP3, pAkt3, Akt3, pAkt1, and Akt1 in activated Tconv cells induced with TGF-β and treated with various concentrations of mJJ64A.
(In general: In western blotting, separated proteins are transferred to a membrane and probed.)

A further assay has as its system IL-10. As to the kind of experiment: IL-10 production by nTregs. The class given is cell-based. As to conditions: percent IL-10+ FoxP3+ cells. An excerpt:
FIG. 17 is a bar graph representing the percent of IL-10^+ FoxP3^+ cells in nTregs treated with various concentrations of mJJ64A.

A further assay deals with experimental colitis. Put plainly: Experimental colitis model. The class given is in vivo, mouse. The following applies: Rag-/- colitis mice. The source says:
FIG. 20A is a schematic illustration of the experimental design of a colitis model. FIG. 20B is a line graph representing weight (g) over time (days post-injection) for control (●), iTreg (▪), mJJ64A+iTreg (▴), and mJJ64A (∘) treated colitis mice. FIG. 20C is a line graph representing normalized weight over time (days post-injection) for control (●), iTreg (▪), mJJ64A+iTreg (▴), and mJJ64A (∘) treated colitis mice. FIG. 20D is a line graph showing percent survival of untreated (●), iTreg (blue circle), mJJ64A+iTreg (▾), and mJJ64A (red circle) treated colitis mice. The X-axis represents time (days) and the Y-axis represents percent survival. FIG. 20E-20I are representative photos of untreated (FIG. 20E), iTreg treated (FIG. 20F), JJa treated iTreg (FIG. 20G), untreated (FIG. 20H), and mJJ64A treated (FIG. 20I) colitis mice. […] FIG. 21A is a photo showing representative colons from untreated (UT), iTreg, mJJ64A treated iTreg, mJJ64A, and wild-type (WT) mice. FIG. 21B is a bar graph representing length and weight of colons from normal, untreated (UT), iTreg, mJJ64A, and mJJ64A+iTreg mice. The X-axis represents the treatment group and the Y-axis represents colon weight/length (mg/mm). […]

For assay [1], the system named is experimental autoimmune encephalomyelitis (EAE). Put plainly: Experimental autoimmune encephalomyelitis (EAE) model. In kind it is in vivo, mouse. An excerpt:
FIG. 24A is a schematic illustration of induction of experimental autoimmune encephalomyelitis (EAE) model. FIG. 24B is a chart showing the grading criterion for scoring severity of EAE. FIG. 24C is a line graph showing EAE score over time (days post EAE induction) for control (●), iTreg (blue circle), and mJJ64A-10 (▾) treated mice. The X-axis represents time (days) and the Y-axis represents EAE score. FIG. 24D is a line graph showing percent survival over time (days) for untreated (•), iTreg treated (●), and mJJ64A-10 treated (▾) mice. The X-axis represents time (days) and the Y-axis represents percent survival. FIG. 24E is a line graph representing EAE score over time (days post EAE induction) for control (●), iTreg (♦), mJJ64A-3 (blue circle), mJJ64A-6 (▾), and mJJ64A-10 (▴) treated EAE mice. The X-axis represents time (days post EAE induction) and the Y-axis represents EAE score. FIG. 24F is a line graph representing percent survival over time (days) for untreated (•), iTreg (blue circle), mJJ64A-3 (▾), mJJ64A-6 (▴), and mJJ64A-10 (♦) treated EAE mice. The X-axis represents time (days) and the Y-axis represents percent survival.

T1 sequence (P31749 whole entry): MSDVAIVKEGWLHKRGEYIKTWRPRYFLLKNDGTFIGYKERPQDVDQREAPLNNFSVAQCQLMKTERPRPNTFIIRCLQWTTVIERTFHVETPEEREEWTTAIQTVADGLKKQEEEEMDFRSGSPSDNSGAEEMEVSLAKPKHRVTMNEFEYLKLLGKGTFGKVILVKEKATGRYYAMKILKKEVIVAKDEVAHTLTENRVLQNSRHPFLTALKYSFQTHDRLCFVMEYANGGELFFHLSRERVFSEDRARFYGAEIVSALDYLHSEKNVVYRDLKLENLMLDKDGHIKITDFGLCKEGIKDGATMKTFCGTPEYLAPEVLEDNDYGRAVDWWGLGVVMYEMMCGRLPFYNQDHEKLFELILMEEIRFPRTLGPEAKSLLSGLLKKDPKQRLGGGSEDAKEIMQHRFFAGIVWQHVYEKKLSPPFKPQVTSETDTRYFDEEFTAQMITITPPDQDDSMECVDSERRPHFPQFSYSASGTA

`N#Cc1ccc2nccc(Nc3ccc(C(=O)Nc4ccc(Nc5ccncc5)cc4)cc3)c2c1` [Compound 2]: the “phosphorylation of Akt1” value on Akt1 pS473 is on record as “not”. The “expression of FoxP3 in Tconv cells during iTreg induction” value in the assay with FoxP3 is given as “increased”. Further, the “IL-10 production by nTregs” value with IL-10 was “increased”. Moreover, in the assay on experimental colitis, the “protection against experimental colitis” value is given as “protected”. In addition, the “disease progression in EAE model” value in assay [1] (EAE score) is reported as “reduced”. In addition, in assay [1] (mouse, in vivo), the “survival rate in EAE model” value is recorded as “increased”.

These data come from patent publication US11291719B2, “Methods and compositions for modulating Akt3” (Augusta University Research Institute, Inc., priority 2016, dated 2022).
